Results: article PMC9234961 (Journal of Medicinal Chemistry, 2022)

Assays:
ADORA2A = ADORA2A (Homo sapiens, UniProt P29274); assay: SAFETYScan GPCR Calcium Flux, Antagonist; format: cell-based
From the text: (§1) Supplement jm1c02175_si_002.xlsx, sheet "SAFETYScan" | column: RC50 (uM); Max Response

ADRA1A = biological target: T1, ADRA1A (Homo sapiens, UniProt P35348); assay: SAFETYScan GPCR Calcium Flux, Antagonist; format: cell-based
T1 sequence (P35348 1-466): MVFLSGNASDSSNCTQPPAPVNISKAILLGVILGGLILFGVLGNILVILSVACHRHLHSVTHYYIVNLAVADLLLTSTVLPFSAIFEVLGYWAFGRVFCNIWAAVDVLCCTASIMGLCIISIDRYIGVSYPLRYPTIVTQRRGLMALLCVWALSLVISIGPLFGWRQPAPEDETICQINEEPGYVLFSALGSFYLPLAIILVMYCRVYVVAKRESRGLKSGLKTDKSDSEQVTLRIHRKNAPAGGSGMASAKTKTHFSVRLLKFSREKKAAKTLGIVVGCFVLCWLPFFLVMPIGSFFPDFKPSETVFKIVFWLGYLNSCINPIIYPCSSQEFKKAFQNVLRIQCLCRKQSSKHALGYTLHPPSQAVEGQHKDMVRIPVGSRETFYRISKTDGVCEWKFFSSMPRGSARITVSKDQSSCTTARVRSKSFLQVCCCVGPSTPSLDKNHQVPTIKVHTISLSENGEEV
From the text: as §1

AVPR1A = AVPR1A (Homo sapiens, UniProt P37288); assay: SAFETYScan GPCR Calcium Flux, Antagonist; format: cell-based
From the text: as §1

EDNRA = biological target: T2, EDNRA (Homo sapiens, UniProt P25101); assay: SAFETYScan GPCR Calcium Flux, Antagonist; format: cell-based
T2 sequence (P25101 21-427): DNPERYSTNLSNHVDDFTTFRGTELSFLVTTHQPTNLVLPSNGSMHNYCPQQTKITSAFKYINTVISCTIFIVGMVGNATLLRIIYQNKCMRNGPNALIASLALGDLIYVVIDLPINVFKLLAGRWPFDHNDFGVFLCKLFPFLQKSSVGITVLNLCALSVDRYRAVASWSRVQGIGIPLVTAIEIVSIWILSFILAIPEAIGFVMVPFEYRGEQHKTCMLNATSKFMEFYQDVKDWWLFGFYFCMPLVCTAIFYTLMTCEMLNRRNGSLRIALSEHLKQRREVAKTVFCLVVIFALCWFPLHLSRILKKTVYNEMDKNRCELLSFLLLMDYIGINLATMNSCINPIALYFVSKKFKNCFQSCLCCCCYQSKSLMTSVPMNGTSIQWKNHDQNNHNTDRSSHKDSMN
From the text: as §1

HRH1 = HRH1 (Homo sapiens, UniProt P35367); assay: SAFETYScan GPCR Calcium Flux, Antagonist; format: cell-based
From the text: as §1

HTR2B = biological target: T3, HTR2B (Homo sapiens, UniProt P41595); assay: SAFETYScan GPCR Calcium Flux, Antagonist; format: cell-based
T3 construct: expressed in transfected cells
From the text: as §1

GABAA = GABAA (Homo sapiens, UniProt P14867+P18507+P47870); assay: SAFETYScan Ion Channel, Blocker; format: cell-based; conditions: read-out: Max Response
From the text: as §1

AR = biological target: T4, AR (Homo sapiens, UniProt P10275); assay: SAFETYScan NHR Nuclear Translocation, Agonist; format: cell-based
T4 sequence (P10275 1-920): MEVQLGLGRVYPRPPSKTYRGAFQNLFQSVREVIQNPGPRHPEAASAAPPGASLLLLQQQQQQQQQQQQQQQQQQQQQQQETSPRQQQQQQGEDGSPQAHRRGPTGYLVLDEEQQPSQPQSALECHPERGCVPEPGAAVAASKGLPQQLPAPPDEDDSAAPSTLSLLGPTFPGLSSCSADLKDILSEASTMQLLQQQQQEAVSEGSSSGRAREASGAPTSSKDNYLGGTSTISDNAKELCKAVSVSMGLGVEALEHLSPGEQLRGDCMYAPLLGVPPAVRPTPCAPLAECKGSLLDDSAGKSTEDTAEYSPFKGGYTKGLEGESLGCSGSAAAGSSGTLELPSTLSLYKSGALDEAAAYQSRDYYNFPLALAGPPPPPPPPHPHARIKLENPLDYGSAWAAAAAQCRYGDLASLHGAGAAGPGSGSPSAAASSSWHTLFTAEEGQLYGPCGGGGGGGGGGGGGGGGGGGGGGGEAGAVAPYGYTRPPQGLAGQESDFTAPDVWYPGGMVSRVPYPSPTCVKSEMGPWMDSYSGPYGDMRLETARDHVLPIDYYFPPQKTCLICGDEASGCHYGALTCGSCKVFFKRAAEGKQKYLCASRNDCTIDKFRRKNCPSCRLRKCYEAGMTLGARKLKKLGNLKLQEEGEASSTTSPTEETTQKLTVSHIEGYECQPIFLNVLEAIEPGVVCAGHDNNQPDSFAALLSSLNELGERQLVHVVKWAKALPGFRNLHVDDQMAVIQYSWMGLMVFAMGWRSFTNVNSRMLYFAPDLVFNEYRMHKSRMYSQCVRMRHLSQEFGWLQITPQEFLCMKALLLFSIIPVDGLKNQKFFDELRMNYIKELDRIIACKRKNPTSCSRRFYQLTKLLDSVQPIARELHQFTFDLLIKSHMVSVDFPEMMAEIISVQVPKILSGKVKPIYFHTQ
From the text: as §1

[1] = biological target: BCL6 in OCI-Ly1 DLBCL xenograft (Homo sapiens, UniProt P41182); conditions: single dose 50 mg/kg po
Description: weighed and dosing volumes adjusted accordingly.
7.3.2 Preparation of OCI-Ly1 xenograft model in mouse
Twenty days post injection 24 tumour-bearing mice (between 0.4 and 0.6 cm3) were selected for the study
Mice were then grouped n=3 for the following time points: 12, 16 & 24 hours
Compounds and vehicle were administered po (formulated as described in Supplementary experimental
single treatment of vehicle.
Blood (~1 mL) was taken from anaesthetized mice, via intracardiac puncture, using a 27 gauge needle and
a syringe pre-coated with heparin (200 Units/mL), The heparinized blood was microcentrifuged for 2
minutes and ~200 uL of plasma was aspirated to a labelled tube, frozen on dry-ice and dedicated to
pharmacokinetic analysis (PK). Each tumour was excised, divided into two halves, weighed and then snap
frozen in liquid nitrogen, dedicating one half to PK analysis and the other half to pharmacodynamic analysis (PD). All frozen material was permanently stored in a -80°C freezer.
7.3.6 Tumour lysis and Wes method
Tumours were lysed in lysis buffer (50 mM Tris-HCl, pH 7.4, 150 mM NaCl, 1% Triton X-100 (v/v), 1 mM PMSF, 1 mM activated sodium vanandate, 1 mM EDTA, phosphatase inhibitors 2 and 3 (1:50m dilution) and protease cocktail (1:100 dilution)) using reinforced homogenizing tubes containing metal beads using a Precellys 24 with cryolys cooling at 6000 rpm, 2 × 20 s (Stretton Scientific). Lysates were incubated on ice for 15 minutes, spun at 14000 rpm at 4 °C for 10 minutes and supernatants collected and aliquoted.
Samples were stored at -80 °C until use. Protein concentration was determined by diluting 1:10 with lysis buffer and measuring on Direct Detect® spectrometer according to manufacturer’s instructions.
according to manufacturer’s instructions (ProteinSimple) with multiplexing BCL6 (CST14895 at 1:150
Data was analysed using Compass for SW software. BCL6 data was normalised to GAPDH and transferred to GraphPad Prism 7.

OCI-Ly3 = assay: Cell proliferation assay (14 days), OCI-Ly3
Description: Cells were seeded in 96-well culture plates at a density of 2500 cells/well in RPMI-1640 medium (Sigma-
Aldrich) supplemented with 10% FBS (Gibco). Compounds were initially dispensed into 96-well U-bottom
plates using an Echo 550 acoustic dispenser (Labcyte Inc.), then diluted in RPMI-1640 medium and
transferred onto the cells. Cells were treated with 8 compound concentrations in duplicate, ranging from
with compound for 14 days, with medium changes at days 3, 7 and 10 carried out as follows: fresh 96-well
cell culture plates were prepared containing 100 µl medium plus compound at the assay concentrations
(white plates were used on day 10 to optimise luminescence measurement). Assay plates containing cells
were vortexed to mix and cell density in one control well was counted using a Coulter Z2 cell counter
(Beckman Coulter). The volume of medium containing 2500 cells in the control well was calculated and this volume of cells was transferred from every well of the assay plates to the corresponding well of the fresh plates containing compound. After 14 days, CellTiter Glo reagent (Promega) was added to the medium in each well of the assay plate at a ratio of 1:2, mixed on a plate shaker, then incubated at room temperature for 10 minutes. Luminescence was measured using an Envision plate reader (Perkin Elmer) and the relative luminescence at each compound concentration, compared to DMSO alone, was calculated. GI50 were determined using a 4-parameter curve fit in Dotmatics (Bishops Stortford, UK).

ADORA2A, sequence (P29274 whole entry): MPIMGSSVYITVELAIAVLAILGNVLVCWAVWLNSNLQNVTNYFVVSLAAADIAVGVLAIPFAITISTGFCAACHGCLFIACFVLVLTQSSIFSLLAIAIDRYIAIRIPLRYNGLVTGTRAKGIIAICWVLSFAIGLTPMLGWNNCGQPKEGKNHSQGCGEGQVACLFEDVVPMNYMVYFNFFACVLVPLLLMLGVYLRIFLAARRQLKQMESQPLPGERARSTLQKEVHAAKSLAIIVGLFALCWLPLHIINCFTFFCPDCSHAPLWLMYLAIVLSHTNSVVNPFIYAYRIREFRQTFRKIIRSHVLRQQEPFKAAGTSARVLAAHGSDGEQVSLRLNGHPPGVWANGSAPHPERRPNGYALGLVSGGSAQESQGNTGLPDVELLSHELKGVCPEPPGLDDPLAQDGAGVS
T3 sequence (P41595 whole entry): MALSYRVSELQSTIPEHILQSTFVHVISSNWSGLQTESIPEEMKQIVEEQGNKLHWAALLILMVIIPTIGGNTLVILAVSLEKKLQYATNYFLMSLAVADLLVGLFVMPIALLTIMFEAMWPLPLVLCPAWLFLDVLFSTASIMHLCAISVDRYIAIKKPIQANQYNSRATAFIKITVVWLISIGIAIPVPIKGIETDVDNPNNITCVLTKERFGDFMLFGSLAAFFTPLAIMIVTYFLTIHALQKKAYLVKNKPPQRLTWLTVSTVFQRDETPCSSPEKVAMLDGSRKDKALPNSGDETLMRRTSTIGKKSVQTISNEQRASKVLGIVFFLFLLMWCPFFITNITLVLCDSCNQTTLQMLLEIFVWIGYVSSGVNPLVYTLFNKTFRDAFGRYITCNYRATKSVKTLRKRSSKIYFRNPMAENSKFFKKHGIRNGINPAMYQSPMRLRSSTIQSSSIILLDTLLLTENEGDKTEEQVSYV
HRH1, sequence (P35367 whole entry): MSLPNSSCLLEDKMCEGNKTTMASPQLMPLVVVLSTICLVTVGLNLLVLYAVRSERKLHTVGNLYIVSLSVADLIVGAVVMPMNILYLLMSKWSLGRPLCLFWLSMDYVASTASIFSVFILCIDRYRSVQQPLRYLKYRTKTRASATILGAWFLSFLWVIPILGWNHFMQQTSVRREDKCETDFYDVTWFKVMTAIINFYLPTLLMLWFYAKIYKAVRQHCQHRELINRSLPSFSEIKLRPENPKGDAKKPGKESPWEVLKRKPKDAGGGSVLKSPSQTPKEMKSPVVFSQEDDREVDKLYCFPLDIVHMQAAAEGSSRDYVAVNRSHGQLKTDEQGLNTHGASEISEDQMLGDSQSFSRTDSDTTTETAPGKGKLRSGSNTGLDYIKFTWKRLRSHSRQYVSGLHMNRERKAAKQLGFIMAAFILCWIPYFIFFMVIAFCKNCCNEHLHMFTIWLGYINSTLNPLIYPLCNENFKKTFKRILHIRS
AVPR1A, sequence (P37288 whole entry): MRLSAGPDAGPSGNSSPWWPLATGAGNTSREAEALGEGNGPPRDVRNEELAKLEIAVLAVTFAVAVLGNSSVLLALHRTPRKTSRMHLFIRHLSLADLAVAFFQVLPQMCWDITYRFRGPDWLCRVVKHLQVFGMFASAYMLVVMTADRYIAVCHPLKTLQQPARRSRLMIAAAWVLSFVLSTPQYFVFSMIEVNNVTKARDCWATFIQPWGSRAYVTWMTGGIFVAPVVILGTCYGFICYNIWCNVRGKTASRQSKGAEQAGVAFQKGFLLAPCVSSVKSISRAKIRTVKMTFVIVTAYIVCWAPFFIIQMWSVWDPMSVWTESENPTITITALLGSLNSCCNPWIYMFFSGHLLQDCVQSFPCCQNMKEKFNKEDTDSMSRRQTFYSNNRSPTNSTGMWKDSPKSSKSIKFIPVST
GABAA, sequence (P18507 40-475): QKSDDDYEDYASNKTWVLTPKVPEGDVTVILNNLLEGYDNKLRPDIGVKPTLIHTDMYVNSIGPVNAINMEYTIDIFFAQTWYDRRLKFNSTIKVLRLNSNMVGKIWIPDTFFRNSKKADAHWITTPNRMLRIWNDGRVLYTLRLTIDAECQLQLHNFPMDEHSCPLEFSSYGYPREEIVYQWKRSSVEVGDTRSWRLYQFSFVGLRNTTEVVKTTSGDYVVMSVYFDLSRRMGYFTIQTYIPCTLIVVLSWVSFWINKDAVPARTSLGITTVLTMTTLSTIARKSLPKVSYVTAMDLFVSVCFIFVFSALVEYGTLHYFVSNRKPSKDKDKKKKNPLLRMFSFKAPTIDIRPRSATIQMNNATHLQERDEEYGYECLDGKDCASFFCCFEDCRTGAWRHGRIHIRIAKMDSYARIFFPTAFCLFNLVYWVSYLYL
GABAA, sequence (P14867 28-456): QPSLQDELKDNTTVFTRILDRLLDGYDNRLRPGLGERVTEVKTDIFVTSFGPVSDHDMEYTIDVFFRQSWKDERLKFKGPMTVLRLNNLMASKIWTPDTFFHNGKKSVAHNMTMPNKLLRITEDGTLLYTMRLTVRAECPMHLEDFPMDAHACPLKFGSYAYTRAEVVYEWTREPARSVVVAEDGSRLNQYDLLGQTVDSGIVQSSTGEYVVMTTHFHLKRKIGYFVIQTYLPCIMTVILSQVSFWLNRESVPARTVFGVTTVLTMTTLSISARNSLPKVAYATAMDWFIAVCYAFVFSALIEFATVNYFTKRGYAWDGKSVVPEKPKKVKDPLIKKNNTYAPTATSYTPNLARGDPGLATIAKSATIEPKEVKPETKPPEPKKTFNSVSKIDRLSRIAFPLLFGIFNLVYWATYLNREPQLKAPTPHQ
GABAA, sequence (P47870 26-512): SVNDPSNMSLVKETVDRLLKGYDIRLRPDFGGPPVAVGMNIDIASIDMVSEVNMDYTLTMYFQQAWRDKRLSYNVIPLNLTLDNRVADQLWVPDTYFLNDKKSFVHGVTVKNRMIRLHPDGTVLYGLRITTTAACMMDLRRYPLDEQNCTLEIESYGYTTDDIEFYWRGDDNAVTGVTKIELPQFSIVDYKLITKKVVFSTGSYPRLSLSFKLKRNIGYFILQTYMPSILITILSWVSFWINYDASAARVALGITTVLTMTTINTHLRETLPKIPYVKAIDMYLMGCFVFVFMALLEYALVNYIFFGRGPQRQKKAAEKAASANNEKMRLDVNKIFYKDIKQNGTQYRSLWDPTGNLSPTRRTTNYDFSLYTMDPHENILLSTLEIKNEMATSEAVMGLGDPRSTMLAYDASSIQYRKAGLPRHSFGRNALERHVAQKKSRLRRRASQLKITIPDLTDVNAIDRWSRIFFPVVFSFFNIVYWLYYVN

Molecule `C[C@H]1C[C@@H](O)CN(c2ncc(Cl)c(Nc3ccc4c(c3)c3c(c(=O)n4C)OCC(F)(F)[C@H](C4CC4)N3)n2)C1` [12a CCT373566, (S)-10-((5-Chloro-2-((3R,5S)-3-hydroxy-5-methylpiperidin-1-yl)pyrimidin-4-yl)amino)-2-cyclopropyl-3,3-difluoro-7-methyl-1,2,3,4-tetrahydro-[1,4]oxazepino[2,3-c]quinolin-6(7H)-one] has an Emax (ADORA2A; read-out: Max Response) of 4.91%, an IC50 (ADORA2A; read-out: RC50 (IC50)) greater than 10 µM and an Emax (ADRA1A; read-out: Max Response) of 0%. It also gave an IC50 (ADRA1A; read-out: RC50 (IC50)) greater than 10 µM, an Emax (AVPR1A; read-out: Max Response) of 0% and an IC50 (AVPR1A; read-out: RC50 (IC50)) greater than 10 µM. For the same molecule, the Emax (EDNRA; read-out: Max Response) was 0%, the IC50 (EDNRA; read-out: RC50 (IC50)) was greater than 10 µM and the Emax (HRH1; read-out: Max Response) was 0%. It also gave an IC50 (HRH1; read-out: RC50 (IC50)) greater than 10 µM, an Emax (HTR2B; read-out: Max Response) of 24.2% and an IC50 (HTR2B; read-out: RC50 (IC50)) greater than 10 µM. It also gave an Emax (GABAA) of 1.51%, an Emax (AR; read-out: Max Response) of 0% and an EC50 (AR; read-out: RC50 (EC50)) greater than 10 µM. For the same molecule, the adverse events ([1]; OCI-Ly1 xenograft SCID mice) was “No visible adverse events were observed”, the “tumor concentrations versus plasma concentrations” value ([1]; 12, 16, 24 h) was “lower than plasma concentrations at all time points” and the “BCL6 levels in tumor” value ([1]; 12, 16 and 24 h after dosing) was “significantly decreased at all time points”. The “OCI-Ly3 GI50” value (OCI-Ly3; 14-day proliferation assay, BCL6 low-expressing cell line) was “not seen” and the GI50 (OCI-Ly3; Homo sapiens, OCI-Ly3, 336 h, read-out: OCI-Ly3 GI50) was 1.9 µM.
